Test system: green algae
Conditions: after the pH of the water becomes 6.0 or more acidic on acid addition
Text: Experiments have also been carried out to add acid to suppress plankton.

Cl [hydrochloric acid]
growth of green algae in Dian Ci Lake water: totally inhibited

Source: patent US7632414B2, “Process for suppressing the growth of green algae in aqueous systems” (priority 2003, dated 2009)
